“And” between values parts separate entries of the source, which are not always exact repeats. Equal values may be shown once.
What was measured:
[1] = target: T1, HsAPT1 (Homo sapiens, UniProt O75608); assay: 4-NPO esterase activity assay, recombinant HsAPT1; format: biochemical; parameters: made in house; host or cells: E. coli BL21(DE3)pLysS
Description: (§1) We recently performed a phenotypic screen to identify small-molecule modulators of host cell invasion by the apicomplexan parasite T. gondii. The small-molecules in this directed screen were expected to covalently modify protein targets in an activity-dependent manner. Unexpectedly, this screen not only identified inhibitors of parasite invasion, but also compounds that enhanced host cell invasion. Enhancer compounds were all structurally similar substituted chloroisocoumarins. Using an alkynylated version of the lead enhancer compound (JCP174), we identified the phenotypically relevant target of the enhancer phenotype as the previously uncharacterized thioesterase TgPPT1 [12]. TgPPT1 is the orthologue of the human depalmitoylase HsAPT1, sharing 33% identity by BLAST analysis. […] Therefore, we screened a focused library of substituted chloroisocoumarins to identify compounds that inhibited HsAPT1 and HsAPT2 activity. […] To measure the enzymatic activity of recombinant HsAPT1 and HsAPT2, we used the previously reported substrate, 4-nitrophenyl octanoate (4-NPO), in which enzymatic cleavage of the ester linkage can be measured by UV/Vis spectroscopy upon release of 4-nitrophenolate (Fig 1A). Using this activity readout, we performed our screen with recombinant HsAPT1 and HsAPT2 using a focused library of 100 substituted chloroisocoumarins (Fig 1B). Compounds that produced >50% inhibition of either HsAPT1 or HsAPT2 activity relative to the DMSO control at 10 μM were then re-screened across a range of concentrations to determine in vitro IC50 values (Fig 1C and 1D). Compounds with IC50 values <10 μM for both HsAPT1 and HsAPT2 were scored as hits. According to these criteria, our screen achieved a hit rate of 7% (Table 1). […] We next tested the potency of JCP174 for both enzymes with increasing preincubation times from 30 minutes to 6 hours. The potency of JCP174 increased with longer pre-incubation times for both targets, indicating an irreversible covalent mechanism (S1 Table). […] (S1 Table).
(§2) The 4-nitropenhyl octanoate (4-NPO) activity assay was modified from Dekker et al.. Briefly, 50 μL 20 mM HEPES, 150 mM NaCl, 0.01% v/v Triton-X 100, pH 7.4 buffer with the indicated concentrations of inhibitor or buffer control was added to 96-well plates. To each well, 30 μL of recombinantly expressed enzyme diluted to 1 μM in 20 mM HEPES, 150 mM NaCl, 0.01% v/v Triton-X 100, pH 7.4 buffer was added. The inhibitor and enzyme reaction was incubated at 37°C for 30 minutes before 20 μL of 4-NPO (3.0 mM) was added to the reaction in 20 mM HEPES, 150 mM NaCl, 0.25% v/v Triton-X 100, pH 7.4 buffer. The reaction progress was measured using a Cytation 3 plate reader at 401 nm at 1-minute intervals for 40 minutes.

[2] = target: T2, HsAPT2 (Homo sapiens, UniProt O95372); assay: 4-NPO esterase activity assay, recombinant HsAPT2; format: biochemical; parameters: made in house; host or cells: E. coli BL21(DE3)pLysS
Description: as §1, §2

[3] = test system: TgPPT1; assay: In-gel labeling of recombinant TgPPT1 with JCP174-BT; format: binding, Toxoplasma gondii; conditions: 1 μM probe
[4] = test system: TgPPT1; format: cell-based, Toxoplasma gondii
[5] = test system: HsAPT1 and HsAPT2 in intact U-2 OS cells; assay: Intact mammalian cell labeling, in-gel fluorescence; format: cell-based, human
[6] = target: T1, HsAPT1; assay: FP-rhodamine ABP competition labeling, U-2 OS (HsAPT1 band); format: cell-based; conditions: intact U-2 OS cells pretreated 1 hour, washed, lysates labeled with FP-rho
[7] = target: T2, HsAPT2; assay: FP-rhodamine ABP competition labeling, U-2 OS (HsAPT2 band); format: cell-based; conditions: intact U-2 OS cells pretreated 1 hour, washed, lysates labeled with FP-rho
[8] = rHsAPT1, 4-NPO substrate, 30 minutes preincubation at 37°C
[9] = rHsAPT2, 4-NPO substrate, 30 minutes preincubation at 37°C

T1 sequence (O75608 whole entry): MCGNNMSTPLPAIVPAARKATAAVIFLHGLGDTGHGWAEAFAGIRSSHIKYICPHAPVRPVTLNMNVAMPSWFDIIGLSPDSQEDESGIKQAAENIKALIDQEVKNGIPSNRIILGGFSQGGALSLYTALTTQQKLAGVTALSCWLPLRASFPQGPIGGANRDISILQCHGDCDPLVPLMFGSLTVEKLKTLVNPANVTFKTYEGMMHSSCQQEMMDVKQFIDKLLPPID
T2 sequence (O95372 whole entry): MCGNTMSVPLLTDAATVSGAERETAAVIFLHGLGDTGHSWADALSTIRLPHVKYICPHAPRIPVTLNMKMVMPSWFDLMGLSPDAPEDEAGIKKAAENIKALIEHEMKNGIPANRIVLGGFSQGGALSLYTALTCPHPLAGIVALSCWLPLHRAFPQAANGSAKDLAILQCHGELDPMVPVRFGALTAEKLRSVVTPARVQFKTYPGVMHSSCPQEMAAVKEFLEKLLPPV

O=C(O)c1ccc(NC(=S)Nc2ccc3c(Cl)c(OCCBr)oc(=O)c3c2)cc1 [JCP345]
IC50 [1, 8]: 7100 nM
IC50 [2, 9]: 8500 nM

O=C(O)c1cccc(NC(=S)Nc2ccc3c(Cl)c(OCCBr)oc(=O)c3c2)c1 [JCP342]
IC50 [1, 8]: 1500 nM
IC50 [2, 9]: 5200 nM

COc1ccc(-c2ccc3n2[B-](F)(F)[N+]2=C(C)C(CCC(=O)NCCCn4cc(CCOc5oc(=O)c6cc(N)ccc6c5Cl)nn4)=C(C)C2=C3)cc1 [JCP174-BODIPY TMR]
Covalent labeling of active site mutant TgPPT1 S128A ([3]; recombinant TgPPT1 S128A): did not label the active site mutant
Covalent labeling of wild-type TgPPT1 ([3]; recombinant TgPPT1 WT): covalently modified
Labeling of TgPPT1 in intact T. gondii tachyzoites [4]: strong labeling of TgPPT1 in intact cells
Labeling of HsAPT1 and HsAPT2 in intact U-2 OS cells [5]: labeled APT1 and APT2 in intact cells
IC50 [1, 8]: 3000 nM
IC50 [2, 9]: 1800 nM

CCCCCCCCCC[C@@H]1C(=O)O[C@H]1CCc1ccc(OC)c(OC)c1 [Palmostatin B, palmostatin B, reference compound]
Competition for FP-rho labeling of HsAPT1 [6]: competed for the same two species
Competition for FP-rho labeling of HsAPT2 [7]: competed for the same two species
IC50 ([1]; preincubation time 2 hr): 2500 nM
IC50 ([1]; preincubation time 6 hr): 6800 nM
IC50 [1, 8]: 310 nM
IC50 ([2]; preincubation time 2 hr): 700 nM
IC50 ([2]; preincubation time 6 hr): 1600 nM
IC50 [2, 9]: 320 nM

CCOc1oc(=O)c2cc(NC(=S)Nc3ccccc3)ccc2c1Cl [JCP154]
IC50 [1, 8]: 1800 nM
IC50 [2, 9]: 2900 nM

O=c1oc(OCCBr)c(Cl)c2ccc(NC(=S)Nc3ccccc3)cc12 [JCP343]
IC50 [1, 8]: 1400 nM
IC50 [2, 9]: 9100 nM

C#CCCOc1oc(=O)c2cc(N)ccc2c1Cl [JCP174-alk, 3-(3-Butynoxy)-4-chloro-7-amino-isocoumarin]
IC50 [1, 8]: 925 nM and 930 nM
IC50 [2, 9]: 498 nM and 500 nM

CC(CBr)Oc1oc(=O)c2cc(N)ccc2c1Cl (stereo not shown) [JCP362]
IC50 [1, 8]: 1200 nM
IC50 [2, 9]: 950 nM

O=c1oc(Cl)c(Cl)c2ccccc12 [DCI, dichloroisocoumarin, reference compound]
IC50 [1, 8]: 1700 nM
IC50 [2, 9]: 2700 nM
